# How the values were obtained:
# [1] = biological target: anthrax edema toxin (protective antigen and edema factor) (Bacillus anthracis, UniProt P40136); type: cell-based
# [2] = biological target: T1, membrane guanylyl cyclase (guanylyl cyclase type A, GC-A) (Homo sapiens, UniProt P16066); test: ANP-induced cyclic GMP accumulation in BE-2(C) neuroblastoma cells
# T1 sequence (P16066 33-1061): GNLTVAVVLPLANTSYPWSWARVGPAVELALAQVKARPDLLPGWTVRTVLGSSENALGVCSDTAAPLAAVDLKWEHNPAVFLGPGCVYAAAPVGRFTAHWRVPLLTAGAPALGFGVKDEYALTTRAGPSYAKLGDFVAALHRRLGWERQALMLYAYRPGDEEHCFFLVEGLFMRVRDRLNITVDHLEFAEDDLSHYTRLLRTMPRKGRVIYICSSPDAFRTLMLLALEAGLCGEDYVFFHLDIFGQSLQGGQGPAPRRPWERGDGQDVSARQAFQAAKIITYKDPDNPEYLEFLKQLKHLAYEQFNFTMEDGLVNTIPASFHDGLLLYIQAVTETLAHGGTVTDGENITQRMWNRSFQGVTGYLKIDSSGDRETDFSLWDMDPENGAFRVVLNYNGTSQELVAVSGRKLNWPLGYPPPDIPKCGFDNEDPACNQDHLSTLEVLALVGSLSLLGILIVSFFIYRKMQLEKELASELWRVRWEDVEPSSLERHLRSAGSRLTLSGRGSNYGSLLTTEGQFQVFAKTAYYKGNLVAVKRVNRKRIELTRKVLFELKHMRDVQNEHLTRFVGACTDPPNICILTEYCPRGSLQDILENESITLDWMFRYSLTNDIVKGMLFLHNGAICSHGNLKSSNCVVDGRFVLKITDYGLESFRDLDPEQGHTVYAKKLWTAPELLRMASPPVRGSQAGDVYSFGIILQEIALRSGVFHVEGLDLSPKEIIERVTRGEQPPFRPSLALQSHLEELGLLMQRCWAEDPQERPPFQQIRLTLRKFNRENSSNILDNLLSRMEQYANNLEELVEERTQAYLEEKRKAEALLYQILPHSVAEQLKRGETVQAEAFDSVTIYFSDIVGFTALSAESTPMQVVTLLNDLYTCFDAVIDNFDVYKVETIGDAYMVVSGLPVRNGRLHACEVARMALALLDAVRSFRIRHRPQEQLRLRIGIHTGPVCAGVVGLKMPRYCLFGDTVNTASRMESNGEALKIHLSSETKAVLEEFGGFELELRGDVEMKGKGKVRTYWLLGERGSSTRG
# [3] = biological target: guanylyl cyclase type C (GC-C) (Homo sapiens, UniProt P25092); test: STa-induced activation of GC-C in T84 cells (cyclic GMP accumulation, ELISA); type: cell-based; set-up: endogenous in cells; host or cells: T84 cells
# Sequence of guanylyl cyclase type C (GC-C) (P25092 24-1073): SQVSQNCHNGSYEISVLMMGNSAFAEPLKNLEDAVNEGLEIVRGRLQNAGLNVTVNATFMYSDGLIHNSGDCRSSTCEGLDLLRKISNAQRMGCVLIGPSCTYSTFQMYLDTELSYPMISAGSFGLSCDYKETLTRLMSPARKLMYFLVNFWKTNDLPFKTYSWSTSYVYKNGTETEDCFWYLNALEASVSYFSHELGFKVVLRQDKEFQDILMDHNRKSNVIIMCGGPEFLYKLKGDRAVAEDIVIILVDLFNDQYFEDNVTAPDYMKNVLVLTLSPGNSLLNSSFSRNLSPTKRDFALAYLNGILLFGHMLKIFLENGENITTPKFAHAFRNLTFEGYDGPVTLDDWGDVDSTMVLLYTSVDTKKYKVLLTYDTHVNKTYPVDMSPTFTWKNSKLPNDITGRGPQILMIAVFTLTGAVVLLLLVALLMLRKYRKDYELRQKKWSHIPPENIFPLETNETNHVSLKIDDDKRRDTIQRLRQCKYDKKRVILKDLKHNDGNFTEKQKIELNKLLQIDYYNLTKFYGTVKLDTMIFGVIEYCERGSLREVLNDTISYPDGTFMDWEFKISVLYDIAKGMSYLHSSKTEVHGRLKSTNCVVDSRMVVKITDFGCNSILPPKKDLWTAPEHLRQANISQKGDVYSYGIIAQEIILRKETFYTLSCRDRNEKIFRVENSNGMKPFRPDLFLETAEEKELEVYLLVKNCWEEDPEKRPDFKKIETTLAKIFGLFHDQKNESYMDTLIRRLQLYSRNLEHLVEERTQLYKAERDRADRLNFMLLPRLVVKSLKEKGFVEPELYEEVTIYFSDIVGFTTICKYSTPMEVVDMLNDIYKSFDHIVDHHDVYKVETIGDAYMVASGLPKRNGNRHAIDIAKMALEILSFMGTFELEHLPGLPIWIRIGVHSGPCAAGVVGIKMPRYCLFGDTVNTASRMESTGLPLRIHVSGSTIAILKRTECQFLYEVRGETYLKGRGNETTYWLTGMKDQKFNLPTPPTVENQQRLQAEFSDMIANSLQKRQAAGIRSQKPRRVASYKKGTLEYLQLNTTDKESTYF
# Sequence of anthrax edema toxin (protective antigen and edema factor) (P40136 whole entry, looked up): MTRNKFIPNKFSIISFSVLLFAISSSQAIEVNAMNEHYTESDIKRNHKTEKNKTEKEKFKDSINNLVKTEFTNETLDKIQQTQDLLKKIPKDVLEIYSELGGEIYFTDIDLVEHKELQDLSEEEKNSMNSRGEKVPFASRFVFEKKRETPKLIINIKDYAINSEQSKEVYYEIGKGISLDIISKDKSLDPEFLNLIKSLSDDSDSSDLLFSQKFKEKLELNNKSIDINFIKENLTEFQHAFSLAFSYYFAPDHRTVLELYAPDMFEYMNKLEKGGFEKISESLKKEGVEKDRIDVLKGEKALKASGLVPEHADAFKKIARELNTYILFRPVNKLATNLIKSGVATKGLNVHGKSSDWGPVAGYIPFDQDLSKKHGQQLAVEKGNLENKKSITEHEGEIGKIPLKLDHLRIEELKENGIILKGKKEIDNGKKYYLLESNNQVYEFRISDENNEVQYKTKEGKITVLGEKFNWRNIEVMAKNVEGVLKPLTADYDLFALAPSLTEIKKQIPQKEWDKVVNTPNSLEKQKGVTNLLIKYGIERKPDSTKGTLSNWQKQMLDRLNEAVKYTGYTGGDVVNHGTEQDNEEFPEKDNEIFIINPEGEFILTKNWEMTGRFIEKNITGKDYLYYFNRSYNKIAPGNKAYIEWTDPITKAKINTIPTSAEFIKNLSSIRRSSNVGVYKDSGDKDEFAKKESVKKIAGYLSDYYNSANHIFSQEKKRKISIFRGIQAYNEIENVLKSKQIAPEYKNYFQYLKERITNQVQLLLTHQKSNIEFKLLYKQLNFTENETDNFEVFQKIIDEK
smiles,measurement,setting,value
Cn1c2c(c(=O)n(C)c1=O)C(c1cccc(Br)c1)C1=C(N2)c2ccccc2C1=O (centres unmarked) [compound IIb],cyclic AMP accumulation,[1],62.1±6.3 pmol/mg protein
same,decrease of cyclic AMP accumulation,[1],55.2%
same,IC50,[2],8.4 µM
same,inhibition of STa-induced activation of GC-C (FIG. 2),[3],inhibition
same,inhibition at 50 µM,"[3]; 100 nM STa, 50 μM compound",84.7%
same,level of cyclic GMP,"[3]; 100 nM STa, 50 μM compound, vehicle 124±10, basal 6±2",24±6 pmol/mg protein
same,IC50,"[3]; 100 nM STa, read-out: IC50, inhibition of cyclic GMP synthesis",3.4 µM
same,STa concentration-dependent accumulation of cyclic GMP,"[3]; increasing STa 1 nM to 5 μM, 50 μM compound",significantly suppressed
